Data on 1 molecule can be found in PMC7698783, “Performance of Population Pharmacokinetic Models in Predicting Polymyxin B Exposures” (Microorganisms, 2020).

The conditions of data set [1]: 3 population PK studies, no demographic variables linked to total clearance; cited from earlier work. The source says: In contrast, body weight was linked to total clearance in a study using a two-compartment model. Finally, creatinine clearance had been linked to total clearance of polymyxin B in cystic fibrosis patients. || There were several limitations in our study. Only a limited number of (primarily male) patients were enrolled with standard clinical dosing and dosing frequency. The robustness of our conclusion would be enhanced with a larger sample size and a wider range of dosing regimens. Also, the observed AUC values for comparison were based only 4 data points over a single dosing interval.

Data set [2] can be described thus: Steady-state plasma pharmacokinetics of intravenous polymyxin B in adult patients (LC-MS/MS, ADAPT 5 compartment fitting). Type of data set: in vivo. The note with it: human, one-compartment model, 13 adult patients, i.v. every 12 h, median, read-out: best-fit elimination half-life (median) (converted). How it is done: This was a prospective observational study. The study was conducted from March 2016 to March 2018 at two major teaching hospitals in Singapore: Tan Tock Seng Hospital (TTSH) and Singapore General Hospital (SGH). Adult patients (21 years of age or greater) who received intravenous polymyxin B (USP) for the treatment of suspected or confirmed bacterial infections were enrolled. The dose, dosing interval, and infusion duration of polymyxin B administration were as prescribed by the respective attending medical teams. Patients who were pregnant, on dialysis, with burns or spinal cord injury were excluded.
For each subject, four blood samples were obtained serially over one dosing interval at steady state (presumably after the third day of therapy). Since the dosing regimens were not standardized, a sampling scheme spanning the samples over the dosing interval was adopted to accommodate different scenarios. Sample 1 was obtained within 0.5 h prior to the next scheduled dose, sample 2 was obtained 0.5–1 h after the end of drug administration, sample 3 was obtained 3–8 h after the end of drug administration, and sample 4 was obtained within 4 h prior to the next scheduled dose. All samples were specifically timed in relation to drug administration. […] Polymyxin B concentrations in plasma samples were determined using a validated liquid chromatography tandem mass spectrometry method. […]

Several values for one entry are separate records, joined by “and”; a condition that tells them apart may be missing. Identical values can stand only once. Positions of bridges follow the written chain, without caps; N, C: chain ends. Non-standard residues stand in square brackets, D forms with d. Residues, ends and D or L forms follow the SMILES beside them. *: point of attachment. X1 = CC[C@H](C)CCCCC(=O)*; Dab = NCC[C@H](N)C(=O)O

As for `CC[C@H](C)CCCCC(=O)N[C@@H](CCN)C(=O)N[C@H](C(=O)N[C@@H](CCN)C(=O)N[C@H]1CCNC(=O)[C@H]([C@@H](C)O)NC(=O)[C@H](CCN)NC(=O)[C@H](CCN)NC(=O)[C@H](CC(C)C)NC(=O)[C@@H](Cc2ccccc2)NC(=O)[C@H](CCN)NC1=O)[C@@H](C)O` [polymyxin B] (X1-[Dab]T[Dab][Dab][Dab][dF]L[Dab][Dab]T; lactam 4-C), the “estimates of clearance (total clearance) in population pharmacokinetic studies” value in data set [1] is 2.4 L/h and 2.5 L/h and 2.6 L/h. Besides, the half-life in data set [2] is 6.8 h.
